Assay results as given in PubChem BioAssay (NCI).
“And” between values parts separate entries of the source, which are not always exact repeats. Equal values may be shown once.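 Grown in 96-well plates, cells were treated for 48 hours with each compound at five concentrations. Insufficient inhibition: endpoint recorded as highest concentration tested. GI50 is the concentration that inhibits growth by half. At the TGI there is no net growth.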

What was measured:
Experiment in all cases: growth of human tumour cells (NCI), 48 h
U251 CNS = tested on: U251 CNS
MCF7 breast = tested on: MCF7 breast
NCI-H460 lung = tested on: NCI-H460 lung
786-0 renal = tested on: 786-0 renal
SNB-75 CNS = tested on: SNB-75 CNS
K-562 leukemia = tested on: K-562 leukemia
HOP-92 NSCLC = tested on: HOP-92 NSCLC
SR leukemia = tested on: SR leukemia
OVCAR-8 ovarian = tested on: OVCAR-8 ovarian
A498 renal = tested on: A498 renal

Compound | GI50 (U251 CNS) [µM] | TGI (U251 CNS) | GI50 (MCF7 breast) [µM] | TGI (MCF7 breast) [µM] | GI50 (NCI-H460 lung) [µM] | TGI (NCI-H460 lung) | GI50 (786-0 renal) [µM] | TGI (786-0 renal) | GI50 (SNB-75 CNS) [µM] | TGI (SNB-75 CNS) | GI50 (K-562 leukemia) [µM] | TGI (K-562 leukemia) [µM] | GI50 (HOP-92 NSCLC) [µM] | TGI (HOP-92 NSCLC) | TGI (SR leukemia) [µM] | TGI (OVCAR-8 ovarian) | TGI (A498 renal) [µM] | GI50 (OVCAR-8 ovarian) [µM] | GI50 (A498 renal) [µM] | GI50 (SR leukemia) [µM]
CO/N=C(/C)c1cccc(Nc2cc(-c3ccccc3)nc3ccc(OC)cc23)c1 | 6.62 | 23.7 µM | 5.71 | 56.5 | 7.07 | > 100 µM | 3.18 | 13.3 µM | 42.9 | > 100 µM | 2.72 | > 100 | 2.55 | 8.55 µM |  |  |  |  |  | 
CC(=O)OCCOCNC(=S)N/N=C/c1ccc(Br)s1 |  | > 100 µM |  |  |  | > 100 µM |  | > 100 µM |  | > 100 µM |  | > 100 |  | > 100 µM | > 100 | > 100 µM | > 100 |  |  | 
Nc1nc(N)c2cc(CNc3ccc(C(=O)NC(CC(=O)O)C(=O)O)c(Cl)c3)ccc2n1 (stereo not given) |  |  |  | > 500 | 0.05 | 72.6 µM | < 0.01 | > 500 µM | 71.7 | > 500 µM | 0.05 | > 500 |  |  | > 500 | > 500 µM | > 500 | 0.05 | 0.05 | 
CN1CCN(c2ccc(Nc3ncc4cc(C#N)c(=O)n(C5CCCC5)c4n3)cc2)CC1 | 1.74 | > 100 µM | 0.346 | > 100 | 0.64 | > 49.3 µM | 0.693 | 4.11 µM | 0.336 | 3.8 µM | 1.25 | > 100 |  |  | 3.86 | > 47.9 µM | 2.24 | 3.18 | 0.199 | 0.661
CCOc1ccccc1NC(=O)C(C#N)C1=C(Cl)C(=O)c2ccccc2C1=O (stereo not given) | 1.95 | 3.14 µM and 3.82 µM |  |  | 3.45 | 3.27 µM and 15.1 µM | 0.899 | 3.18 µM and 2.19 µM | 1.68 | 3.94 µM and 3.09 µM | 2.93 |  | 1.4 | 3.65 µM and 3.19 µM | 3.73 | 2.06 µM and 4.59 µM | 36.5 | 1.92 |  | 
C/C(CCn1[nH]c(=O)ccc1=O)=N\OCCCc1ccccc1 |  |  |  |  |  | > 100 µM |  | > 100 µM |  | > 100 µM |  | > 100 |  | > 100 µM | > 100 | > 100 µM | > 100 |  |  | 
S=C1CC(c2ccccc2)Sc2ccc(Cl)cc2N1 (stereo not given) |  | > 100 µM |  | > 100 |  | > 100 µM |  | 59.5 µM |  | > 100 µM |  | > 100 |  |  | > 100 | > 100 µM |  |  |  | 
O=S1(=O)OCCOS(=O)(=O)C1Cl |  |  |  |  |  |  |  | > 100 µM |  | > 100 µM |  | > 100 |  | > 100 µM | > 100 | > 100 µM | > 100 |  |  | 
N#CC(C(=O)CCC(=O)Nc1cccc(C(F)(F)F)c1)c1ccc(Cl)cc1 (stereo not given) |  | > 100 µM |  |  |  | > 100 µM |  | > 100 µM |  |  |  | > 100 |  | > 100 µM |  | > 100 µM | > 100 |  |  | 
c1ccc(CSc2nc3ccccc3nc2-c2cccs2)cc1 |  | > 100 µM |  |  |  | > 100 µM |  | > 100 µM |  | > 100 µM |  | > 100 |  | > 100 µM |  | > 100 µM |  |  |  | 
CCN(CC)c1cc2oc3cc(N)cc(=N)c-3nc2cc1C | 3.13 | 14.7 µM | 1.86 | 4.49 | 3.41 | 17 µM | 11.2 | 70.1 µM | 2.84 | 13.4 µM |  |  | 20.2 | 79.7 µM |  | > 100 µM | 74.7 | 2.77 | 16.3 | 
Cc1nn(C(=O)c2ccc(Cl)cc2)c2c1C(c1ccc(O)cc1)SC(N)=N2 (stereo not given) |  | > 10 µM |  | > 10 |  | > 10 µM |  | > 10 µM |  | > 10 µM |  | > 10 |  | > 10 µM | > 10 | > 10 µM |  |  |  | 
CC(C)(C)OC(=O)N1N=NC2C1C1CC(OCc3ccccc3)(OCc3ccccc3)C2O1 (stereo not given) |  | > 100 µM |  |  |  | > 100 µM |  | > 100 µM |  | > 100 µM |  | 63.6 |  | > 100 µM |  |  | > 100 |  |  | 
Oc1ccc(Br)cc1C=Nc1ccc(N=Cc2cc(Br)ccc2O)cc1 |  | > 100 µM |  |  |  | > 100 µM |  | > 100 µM |  | > 100 µM |  | > 100 |  | > 100 µM | > 100 | > 100 µM | > 100 |  |  | 
O=C(O)CN(c1ccccc1)S(=O)(=O)c1ccc([N+](=O)[O-])cc1 |  | > 100 µM |  |  |  | > 100 µM |  | > 100 µM |  |  |  | > 100 |  | > 100 µM |  | > 100 µM | > 100 |  |  | 
Cc1cc(C(C)(C)C)cc(Cc2cc(C(C)(C)C)cc(Cc3cc(C(C)(C)C)cc(C)c3O)c2O)c1O |  | 14.9 µM |  |  |  | 21.8 µM |  | 18.6 µM |  | 15.5 µM |  | 16.4 |  | 10.5 µM |  | 17.6 µM | 45.1 |  |  | 
O=C1CSC(c2ccc(-c3nc4ccccc4s3)cc2)=N1 | 28 | > 100 µM |  |  | 30.2 | 74.5 µM | 77.2 | > 100 µM | > 100 | > 100 µM | 16.7 | 50.4 | > 100 | > 100 µM | 59.8 | > 100 µM |  | 11.1 |  | 13.1
O=c1c2ccccc2nc(-c2ccccc2)n1NC(=S)Nc1ccccc1 |  | > 100 µM |  |  |  | > 100 µM |  | > 100 µM |  | > 100 µM |  | > 100 |  | > 100 µM | > 100 | > 100 µM | > 100 |  |  | 
O=C(CSC(c1ccccc1)c1ccccc1)N/N=C/c1ccco1 | 1.77 | 3.21 µM | 1.74 | > 5.22 | 2.16 | 12.8 µM | 1.83 | 9.05 µM | 17.1 | 58.1 µM | 2.16 | 8.74 | 1.44 | 2.97 µM |  | 6.67 µM | 5.37 | 1.84 | 1.89 | 
OCC(O)CNc1ccnc2cc(Cl)ccc12 (stereo not given) |  | > 100 µM |  |  |  | > 100 µM |  | > 100 µM |  | > 100 µM |  | > 100 |  | > 100 µM | > 100 | > 100 µM | > 100 |  |  | 
